US20200031778A1, “NOVEL 5-SUBSTITUTED IMIDAZOLYLMETHYL DERIVATIVES” (Bayer CropScience Aktiengesellschaft, priority 2016, published 2020)

Test: Log P by HPLC on reversed phase columns (EEC directive 79/831 Annex V.A8; methods [a], [b], [c])
Assay type: physicochemical
Conditions: for chromatographic logP: reversed phase HPLC column
In short: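 Reversed-phase HPLC with LC-UV detection, 10→95% acetonitrile linear gradient; aqueous eluent 0.1% formic acid [a], 0.001 M ammonium acetate, neutral [b], or 0.1% phosphoric acid [c]. Calibrated against C3–C16 alkan-2-ones of known Log P by retention-time linear interpolation; multiple values within a method separated by "+".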

[1] = method [a], HPLC on reversed phase columns
[2] = method [a]: LC-UV, acidic range, 0.1% formic acid in water and acetonitrile as eluent (linear gradient from 10% to 95% acetonitrile)

CCCC#Cc1ccc(C(O)(Cn2cncc2C#N)C2(Cl)CC2)c(Cl)c1 (centres unmarked) [I-655]
LogP: 3.65^[a]

N#Cc1cncn1CC(O)(c1ccc(C#CC2CCCC2)cc1Cl)C1(Cl)CC1 (centres unmarked) [I-656]
LogP: 4.15^[a]

CC(C)(C)C#Cc1ccc(C(O)(Cn2cncc2C#N)C2(Cl)CC2)c(Cl)c1 (centres unmarked) [I-657]
LogP: 3.99^[a]

CCCC(C)C#CC(O)(Cn1cncc1C#N)C1(Cl)CC1 (centres unmarked) [I-658]
LogP: 2.82^[a]

C#Cc1ccc(C(O)(Cn2cncc2C#N)C2(Cl)CC2)c(F)c1 (centres unmarked) [I-659]
LogP: 2.42^[a]

N#Cc1cncn1CC(O)(CCC1CCCCC1)C1(Cl)CC1 (centres unmarked) [I-660, 1-[2-(1-chlorocyclopropyl)-4-cyclohexyl-2-hydroxybutyl]-1H-imidazole-5-carbonitrile]
chromatographic logP [1]: 3.79

N#Cc1cncn1CC(O)(CCCC1CCCCC1)C1CC1 (centres unmarked) [I-661]
LogP: 3.83^[a]

N#Cc1cncn1CC(O)(CCC1CCCCC1)C1(F)CC1 (centres unmarked) [I-662]
LogP: 3.19^[a]

N#Cc1cncn1CC(O)(C=CC1CCCCC1)C1(Cl)CC1 (centres unmarked) [I-663, 1-[2-(1-chlorocyclopropyl)-4-cyclohexyl-2-hydroxybut-3-en-1-yl]-1H-imidazole-5-carbonitrile]
chromatographic logP [1]: 3.48

C=CCC(O)(Cn1cncc1C#N)C1(F)CC1 (centres unmarked) [I-664]
LogP: 1.56^[a]

N#Cc1cncn1CC(O)(CCCC1CCCCC1)C1CCC1 (centres unmarked) [I-665]
LogP: 4.16^[a]

N#Cc1cncn1CC(O)(CCCC1CCCCC1)CC1CC1 (centres unmarked) [I-666]
LogP: 3.91^[a]

C[Si](C)(CCC(O)(Cn1cncc1C#N)C1(Cl)CC1)c1ccccc1 (centres unmarked) [I-667]
LogP: 3.70^[a]

C[Si](C)(CCC(O)(Cn1cncc1C#N)C1(F)CC1)c1ccccc1 (centres unmarked) [I-668]
LogP: 3.30^[a]

C=CCC(O)(Cn1cncc1C#N)C1(Cl)CC1 (centres unmarked) [I-669]
LogP: 1.98^[a]

C#CC(O)(Cn1cncc1C#N)C1(Cl)CC1 (centres unmarked) [I-670]
LogP: 1.36^[a]

CC(C)CCCC(O)(Cn1cncc1C#N)C1(F)CC1 (centres unmarked) [I-671]
LogP: 2.82^[a]

N#Cc1cncn1CC(O)(CCCC1CCCCC1)C1(F)CC1 (centres unmarked) [I-672]
LogP: 3.71^[a]

CC(C)(C)C(O)(C=CCC1CCCCC1)Cn1cncc1C#N (centres unmarked) [I-673]
LogP: 4.05^[a]

OC(CCC1CCCC1)(Cn1cncc1C(F)(F)F)C1(Cl)CC1 (centres unmarked) [I-674]
LogP: 4.10^[a]

C=C(C)CC(O)(Cn1cncc1C#N)C1(Cl)CC1 (centres unmarked) [I-675]
LogP: 2.35^[a]

OC(CCCC1CCCCC1)(Cn1cncc1C(F)(F)F)C1(Cl)CC1 (centres unmarked) [I-676]
LogP: 5.19^[a]

CCCC(C)CCC(O)(Cn1cncc1C#N)C1(Cl)CC1 (centres unmarked) [I-677]
LogP: 3.69^[a]

N#Cc1cncn1CC(O)(CCCC(Cl)CCl)C1(F)CC1 (centres unmarked) [I-678]
LogP: 2.54'^[a]

C[Si](C)(C)C=CC(O)(Cn1cncc1C#N)C1(F)CC1 (centres unmarked) [I-679]
LogP: 2.77^[a]

N#Cc1cncn1CC(O)(C=CCC(Cl)CCl)C1(F)CC1 (centres unmarked) [I-680]
LogP: 2.44^[a]

N#Cc1cncn1CC(O)(c1ccc(Br)c(Cl)c1Cl)C1(F)CC1 (centres unmarked) [I-681]
LogP: 2.80^[a]

N#Cc1cncn1CC(O)(c1cc(F)c(Br)cc1Cl)C1(F)CC1 (centres unmarked) [I-682]
LogP: 2.63^[a]

N#Cc1cncn1CC(O)(c1ccc(Br)nc1Cl)C1(F)CC1 (centres unmarked) [I-683]
LogP: 2.01^[a]

N#Cc1cncn1CC(O)(c1cc(Cl)c(Br)cc1Cl)C1(F)CC1 (centres unmarked) [I-684]
LogP: 2.86^[a]

Cc1c(Cl)ccc(C(O)(Cn2cncc2C#N)C2(F)CC2)c1F (centres unmarked) [I-685]
LogP: 2.63^[a]

N#Cc1cncn1CC(O)(c1cnc(Br)cc1Cl)C1(F)CC1 (centres unmarked) [I-686]
LogP: 1.97^[a]

N#Cc1cncn1CC(O)(c1cc(Cl)c(F)cc1Br)C1(F)CC1 (centres unmarked) [I-687]
LogP: 2.61^[a]

N#Cc1cncn1CC(O)(c1cc(F)c(F)cc1Br)C1(F)CC1 (centres unmarked) [I-688]
LogP: 2.36^[a]

CCCC(C)C=CC(O)(Cn1cncc1C#N)C1(Cl)CC1 (centres unmarked) [I-689]
LogP: 3.41^[a]

C[Si](C)(C)C=CC(O)(Cn1cncc1C(F)(F)F)C1(Cl)CC1 (centres unmarked) [I-690]
LogP: 3.85^[a]

C[Si](C)(C)CCC(O)(Cn1cncc1C(F)(F)F)C1(Cl)CC1 (centres unmarked) [I-691]
LogP: 4.24^[a]

N#Cc1cncn1CC(O)(C#CC1CC1)C1(Cl)CC1 (centres unmarked) [I-692]
LogP: 2.11^[a]

N#Cc1cncn1CC(O)(C#CC1CC1)C1(F)CC1 (centres unmarked) [I-693]
LogP: 1.74^[a]

O=C(Cn1cncc1Cl)c1ccc(Oc2ccc(Cl)cn2)cc1 [IX-02]
chromatographic logP [2]: 2.12

O=C(Cn1cncc1Cl)c1ccc(Oc2ccc(OC(F)(F)F)cc2)c(Br)c1 [IX-10]
chromatographic logP [2]: 3.41

COc1ccc(Oc2ccc(C(=O)Cn3cncc3Cl)c(Cl)n2)c(Cl)c1 [IX-24]
chromatographic logP [2]: 2.64

O=C(Cn1cncc1Br)c1ccc(Oc2ccc(Cl)cc2)cc1F [IX-46]
chromatographic logP [2]: 2.86

O=C(Cn1cncc1Br)c1ccc(Oc2ccc(I)cc2)cc1F [IX-48]
chromatographic logP [2]: 3.19

N#Cc1cncn1CC(=O)c1cnc(Oc2ccc(S(F)(F)(F)(F)F)cc2)cc1C(F)(F)F [IX-81]
LogP: 3.67^[a]

O=Cc1ccc(Oc2ccc(C(=O)Cn3cncc3F)c(Cl)n2)cc1 [IX-85]
chromatographic logP [2]: 1.59

N#Cc1cncn1CC(=O)c1ccc(F)cc1F [IX-87]
chromatographic logP [2]: 1.75

N#Cc1cncn1CC(=O)c1ccccc1 [IX-101]
chromatographic logP [2]: 1.55

CC(=O)c1cncn1CC(=O)c1cnc(Oc2ccc(Cl)cc2F)cc1C(F)(F)F [IX-102]
chromatographic logP [2]: 3.21

N#Cc1cncn1CC(=O)c1cnc(Oc2ccc(C(F)(F)F)nc2)cc1C(F)(F)F [IX-105]
chromatographic logP [2]: 2.82

O=C(Cn1cncc1F)c1ccc(Oc2ccc(Cl)cc2)nc1C(F)(F)F [IX-106]
LogP: 2.59^[a]

CC(=O)c1cncn1CC(=O)c1ccc(Oc2ccc(Cl)cc2)nc1C(F)(F)F [IX-119]
chromatographic logP [2]: 3.13

O=C(Cn1cncc1Br)c1ccc(F)cc1F [IX-121]
chromatographic logP [2]: 1.32

N#Cc1cncn1CC(=O)c1ccc(Cl)s1 [IX-125]
chromatographic logP [2]: 1.88

O=C(Cn1cncc1F)c1ccc(Oc2ccc(C(F)(F)F)nc2)nc1C(F)(F)F [IX-130]
LogP: 2.16^[a]

N#Cc1cncn1CC(=O)c1ccc(Oc2ccc(S(F)(F)(F)(F)F)cc2)nc1C(F)(F)F [IX-135]
LogP: 3.55^[a]

O=C(Cn1cncc1F)c1ccc(Oc2ccc(S(F)(F)(F)(F)F)cc2)nc1C(F)(F)F [IX-136]
LogP: 3.06^[a]

CCC(=O)c1cncn1CC(=O)c1ccc(Oc2ccc(Br)cc2)cc1C(F)(F)F [IX-139]
chromatographic logP [2]: 3.71

O=C(Cn1cncc1Cl)c1ccc(O)cc1Cl [IX-145]
chromatographic logP [2]: 0.97

N#Cc1cncn1CC(=O)c1ccco1 [IX-146]
chromatographic logP [2]: 0.92

N#Cc1cncn1CC(=O)c1ccc(Cl)cc1F [IX-147]
chromatographic logP [2]: 1.94

N#Cc1cncn1CC(=O)c1cccc(Cl)c1F [IX-148]
chromatographic logP [2]: 2.02
